Paper PMC6149822, “A New Series of Pyrrole-Based Chalcones: Synthesis and Evaluation of Antimicrobial Activity, Cytotoxicity, and Genotoxicity” (Molecules : A Journal of Synthetic Chemistry and Natural …, 2017)
Converted amounts (≈) assume the structure as drawn.

How the values were obtained:
[1] = test system: C. glabrata (ATCC 90030); assay: Microdilution susceptibility assay (MIC); type: cell-based, Candida glabrata; conditions: Nakaseomyces glabratus, ATCC90030
Method: (§1) Compounds 1–10 were screened for their antimicrobial activity against gram-negative bacteria, gram-positive bacteria, and yeasts, listed in Table 1. Bacteria were grown in Mueller-Hinton Broth and yeasts were grown in Sabouraud Dextrose Broth (SDB) during experiments. Overnight cultures were prepared routinely by subculturing of stock culture onto Mueller-Hinton Agar for bacteria and Sabouraud Dextrose Agar for yeasts.
(§2) Microdilution susceptibility assay was used for the determination of antibacterial and anticandidal efficacy of compounds 1–10. Chloramphenicol and ketoconazole were used as positive controls for bacteria and yeasts, respectively. All experiments were designed according to the Clinical Laboratory Standards Institute (CLSI). All chemicals were dissolved in dimethyl sulfoxide (DMSO) to obtain stock solution (10 mg/mL). Two-fold serial dilutions (800, 400, 200...0.78 µg/mL) of the compounds were prepared from stock solutions with dH2O. 100 µL of each solution was transferred to 96-well microtiter plates and 100 µL of 10^6 CFU/mL of bacteria and 2 × 10^3 of CFU/mL yeast were added to related wells. As negative controls, wells including microorganisms without agents and wells including agents without microorganisms were used. The plates were kept at 35 °C for 18–20 h and the growth was determined with resazurin (20 mg/mL). Assays were carried out in triplicate.

[2] = test system: C. albicans (ATCC 90028); assay: Microdilution susceptibility assay (MIC); type: cell-based; conditions: Candida albicans, ATCC90028
Method: as §1, §2

[3] = test system: S. aureus (ATCC 25923); assay: Microdilution susceptibility assay (MIC); type: cell-based; conditions: Staphylococcus aureus, ATCC25923
Method: as §1, §2

[4] = test system: E. faecalis (ATCC 51299); assay: Microdilution susceptibility assay (MIC); type: cell-based; conditions: Enterococcus faecalis, ATCC51299
Method: as §1, §2

[5] = test system: E. faecalis (ATCC 29212); assay: Microdilution susceptibility assay (MIC); type: cell-based; conditions: Enterococcus faecalis, ATCC29212
Method: as §1, §2

[6] = test system: K. pneumoniae (ATCC 700603); assay: Microdilution susceptibility assay (MIC); type: cell-based; conditions: Klebsiella pneumoniae, ATCC700603
Method: as §1, §2

[7] = test system: E. coli (ATCC 25922); assay: Microdilution susceptibility assay (MIC); type: cell-based; conditions: Escherichia coli, ATCC25922
Method: as §1, §2

[8] = test system: C. krusei cells; assay: Flow cytometry live/dead analysis (TO/PI); type: cell-based, Candida krusei; conditions: 25 µg/mL, 4 h
Source text: In order to investigate the effects of compounds 7 and 9 on the integrity of C. krusei cells, flow cytometry was used with BD cell viability kits. Live cells are impermeable to dyes such as PI since they have intact membranes. TO is a permeant dye and enters live and dead cells to varying degrees. The fluorescent signal from TO in viable cells allows their enumeration, even when debris in the cell preparation contaminates a scatter gate around the cells. Thus, the combination of these two dyes provides a rapid and reliable method for discriminating live and dead eukaryotic cells, including yeasts. All steps were performed according to manufacturers’ recommendations. Briefly, Candida cells were cultured at 35 °C in SDB until late log phase. The cells were centrifuged and washed with phosphate-buffered saline (PBS) at pH = 7.0. Suspensions containing 2 × 10^3 cells/mL were incubated with compounds 7 and 9, and ketoconazole as a reference drug, for 4 h at 35 °C, with shaking (200 r.p.m.). […] Suspensions of treated and untreated cells were incubated for 30 min in the presence of 2 µL of PI and 2 µL of TO, in the dark, at room temperature. The cell suspensions were analysed in a BD Accuri C6 flow cytometer (Becton-Dickinson, Mansfield, MA, USA). The cell scattergram (forward scatter: FS, side scatter: SS), the autofluorescence (without fluorocrome), and the intensity of fluorescence at FL1 (green fluorescence, 525 nm) and FL2 (red fluorescence, 620 nm) were recorded using a logarithmic scale.

[9] = test system: C. parapsilosis (ATCC 22019); assay: Microdilution susceptibility assay (MIC); type: cell-based, Candida parapsilosis; conditions: Lodderomyces parapsilosis, ATCC22019
Method: as §1, §2

[10] = test system: C. krusei (ATCC 6258); assay: Microdilution susceptibility assay (MIC); type: cell-based, Candida krusei; conditions: Pichia kudriavzevii, ATCC6258
Method: as §1, §2

[11] = test system: C. albicans; assay: ATP luminescence microbial cell viability assay; type: cell-based, Candida albicans; conditions: 24 h treatment, result in words
Method: (§3) A model from BioTek Instruments Inc. combined with a BacTiter-Glo^TM Microbial Cell Viability assay (Promega Corp., Madison, WI, USA) was used to provide a sensitive and rapid method for determining the number of viable microbial cells in culture based on quantitation of the ATP present. […] After incubation, cultures were added into the wells (final concentration of bacteria was 5 × 10^5 CFU/mL and 2.5 × 10^6 CFU/mL for yeasts). After adding the BacTiter reagent, incubation time for bacteria and yeasts was 5 min and 15 min, respectively.
The assay generates a “glow-type” luminescent signal, produced by the luciferase reaction. Briefly, after chemicals and strains were incubated for 24 h, 100 µL of the culture was taken from each well and mixed with the same volume of the BacTiter-Glo™ reagent in a white, opaque-walled microtiter plate. Control wells containing medium without cells were prepared to obtain a value for background luminescence. Cells without compound were used as an ATP-positive control. The microplates were further incubated under agitation for 7 min. Bioluminescence was recorded in a multi-detection microplate reader (BioTek Synergy 2 Multi-Mode Microplate Reader, BioTek Instruments, Winooski, VT, USA). […] Experiments were performed in triplicate and each sample was measured in four replicates.

[12] = test system: E. faecalis (ATCC 29212); assay: ATP luminescence microbial cell viability assay; type: cell-based, Enterococcus faecalis; conditions: 24 h treatment, result in words
Method: as §3
(§4) The assay generates a “glow-type” luminescent signal, produced by the luciferase reaction. Briefly, after chemicals and strains were incubated for 24 h, 100 µL of the culture was taken from each well and mixed with the same volume of the BacTiter-Glo™ reagent in a white, opaque-walled microtiter plate. Control wells containing medium without cells were prepared to obtain a value for background luminescence. Cells without compound were used as an ATP-positive control. The microplates were further incubated under agitation for 7 min. Bioluminescence was recorded in a multi-detection microplate reader (BioTek Synergy 2 Multi-Mode Microplate Reader, BioTek Instruments, Winooski, VT, USA). In Figure 3, results were given as percentage of untreated control, which is set at 100%. Experiments were performed in triplicate and each sample was measured in four replicates.

[13] = test system: C. glabrata; assay: ATP luminescence microbial cell viability assay; type: cell-based, Candida glabrata; conditions: 24 h treatment, result in words
Method: as §3, §4

Row | Compound | MIC [1] | MIC [2] | MIC [3] | MIC [4] | MIC [5] | MIC [6] | MIC [7] | Dead Cell % [8] | Live Cell % [8] | MIC [9] | MIC [10] | antifungal activity in ATP bioluminescence assay [11] | antimicrobial activity in ATP bioluminescence assay [12] | antifungal activity in ATP bioluminescence assay [13]
1 | Cn1cccc1C(=O)C=Cc1ccc(-c2cc(Cl)ccc2Cl)o1 [Compound 9, 1-(1-Methyl-1H-pyrrol-2-yl)-3-(5-(2,5-dichlorophenyl)furan-2-yl)prop-2-en-1-one] | 100 µg/mL (≈ 289 µM) | 200 µg/mL (≈ 578 µM) | 200 µg/mL (≈ 578 µM) | 400 µg/mL (≈ 1160 µM) | 200 µg/mL (≈ 578 µM) | 200 µg/mL (≈ 578 µM) | 100 µg/mL (≈ 289 µM) | 15.9% | 83.9% | 50 µg/mL (≈ 144 µM) | 25 µg/mL (≈ 72.2 µM) | – | – | –
2 | Cn1cccc1C(=O)C=Cc1ccc(-c2ccc(Cl)cc2)o1 [Compound 7, 1-(1-Methyl-1H-pyrrol-2-yl)-3-(5-(4-chlorophenyl)furan-2-yl)prop-2-en-1-one] | 100 µg/mL (≈ 321 µM) | 50 µg/mL (≈ 160 µM) | 400 µg/mL (≈ 1280 µM) | 200 µg/mL (≈ 642 µM) | 100 µg/mL (≈ 321 µM) | 100 µg/mL (≈ 321 µM) | 400 µg/mL (≈ 1280 µM) | 20.0% | 79.6% | 100 µg/mL (≈ 321 µM) | 25 µg/mL (≈ 80.2 µM) | no statistically significant effects | sensitive | antifungal activity close to ketoconazole
